According to article PMC2229521 (The Journal of General Physiology, 2002):

Legend:
[1] = target: human adult nAChRs expressed in HEK 293 cells (Homo sapiens, UniProt P02708+P11230+Q04844+Q07001); type: binding; details: P = 0.64 by one-way ANOVA
[2] = target: neuronal nAChR ACh recognition sites; details: ref Perry et al., 1988; Hunter et al., 1989; cited from earlier work

Sequence of human adult nAChRs expressed in HEK 293 cells (P02708 21-457): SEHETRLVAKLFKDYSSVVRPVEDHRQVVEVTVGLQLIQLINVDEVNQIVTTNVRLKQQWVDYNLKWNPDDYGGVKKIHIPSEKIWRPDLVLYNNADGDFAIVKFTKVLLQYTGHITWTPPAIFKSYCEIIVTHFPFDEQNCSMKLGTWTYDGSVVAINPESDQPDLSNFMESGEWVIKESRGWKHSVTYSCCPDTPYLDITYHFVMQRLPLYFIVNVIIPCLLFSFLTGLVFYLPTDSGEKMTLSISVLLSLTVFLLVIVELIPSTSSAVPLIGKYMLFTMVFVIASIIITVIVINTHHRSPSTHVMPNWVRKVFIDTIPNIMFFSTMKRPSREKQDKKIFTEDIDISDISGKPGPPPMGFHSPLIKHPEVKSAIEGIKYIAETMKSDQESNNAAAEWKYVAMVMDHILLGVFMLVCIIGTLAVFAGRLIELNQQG
Sequence of human adult nAChRs expressed in HEK 293 cells (P11230 24-501): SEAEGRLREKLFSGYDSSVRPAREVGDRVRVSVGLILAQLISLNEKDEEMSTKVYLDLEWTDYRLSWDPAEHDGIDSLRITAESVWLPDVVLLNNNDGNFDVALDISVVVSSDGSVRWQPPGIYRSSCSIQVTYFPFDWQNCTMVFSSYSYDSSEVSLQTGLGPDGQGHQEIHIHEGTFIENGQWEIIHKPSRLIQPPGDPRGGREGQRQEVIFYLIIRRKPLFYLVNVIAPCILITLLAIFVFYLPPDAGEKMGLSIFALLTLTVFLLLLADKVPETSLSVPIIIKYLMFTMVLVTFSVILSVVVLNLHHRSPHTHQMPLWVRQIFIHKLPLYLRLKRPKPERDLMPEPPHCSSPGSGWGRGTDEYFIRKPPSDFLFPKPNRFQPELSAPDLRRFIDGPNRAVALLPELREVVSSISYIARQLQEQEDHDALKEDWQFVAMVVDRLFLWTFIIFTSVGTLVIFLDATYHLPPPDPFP
Sequence of human adult nAChRs expressed in HEK 293 cells (Q07001 22-517): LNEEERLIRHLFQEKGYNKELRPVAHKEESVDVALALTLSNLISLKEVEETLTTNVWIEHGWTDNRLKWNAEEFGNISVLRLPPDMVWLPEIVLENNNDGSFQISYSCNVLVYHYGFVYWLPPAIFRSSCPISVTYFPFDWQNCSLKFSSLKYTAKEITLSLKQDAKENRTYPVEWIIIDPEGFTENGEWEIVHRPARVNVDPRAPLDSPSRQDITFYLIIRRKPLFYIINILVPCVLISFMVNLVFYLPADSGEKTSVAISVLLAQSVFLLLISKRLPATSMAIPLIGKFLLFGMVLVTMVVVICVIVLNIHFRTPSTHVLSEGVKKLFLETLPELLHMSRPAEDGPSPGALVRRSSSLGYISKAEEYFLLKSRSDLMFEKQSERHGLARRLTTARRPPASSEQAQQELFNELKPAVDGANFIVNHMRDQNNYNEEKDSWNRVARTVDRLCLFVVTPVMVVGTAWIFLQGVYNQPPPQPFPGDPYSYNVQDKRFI
Sequence of human adult nAChRs expressed in HEK 293 cells (Q04844 21-493): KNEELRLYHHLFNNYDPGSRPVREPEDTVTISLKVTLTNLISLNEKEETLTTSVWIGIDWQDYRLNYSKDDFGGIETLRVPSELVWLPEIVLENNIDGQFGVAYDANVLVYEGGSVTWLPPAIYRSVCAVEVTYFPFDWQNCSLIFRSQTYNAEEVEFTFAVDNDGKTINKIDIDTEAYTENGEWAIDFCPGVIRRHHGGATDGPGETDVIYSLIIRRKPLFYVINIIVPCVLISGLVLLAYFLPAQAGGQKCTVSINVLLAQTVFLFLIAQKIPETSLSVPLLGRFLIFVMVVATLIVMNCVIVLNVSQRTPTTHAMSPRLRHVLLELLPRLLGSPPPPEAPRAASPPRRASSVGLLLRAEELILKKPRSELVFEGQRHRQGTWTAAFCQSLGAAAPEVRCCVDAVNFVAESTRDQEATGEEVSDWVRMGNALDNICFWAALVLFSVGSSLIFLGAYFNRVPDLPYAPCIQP

## C[N+](C)(C)CCOC(N)=O.[Cl-] [carbamylcholine]
[1]
  difference in log IC 50 values in the presence of varying concentrations of tacrine: No difference

## Nc1c2c(nc3ccccc13)CCCC2 [tacrine, 9-amino-1,2,3,4-tetrahydroacridine]
[2]
  Kd values, competitive binding: low micromolar range
